Source: the RepoRT retention time repository (doi:10.1016/j.chroma.2012.03.059)

Assay: RP, Agilent ZORBAX Eclipse XDB-C8, 150 × 4.6 mm, 3.5 µm, 25 °C, 0.6 mL/min, estimated dead time 2.6 min; A: water + 0.1% formic acid; B: acetonitrile + 0.1% formic acid; gradient (min/%B) 0/10 5/10 30/100
Conditions: stereoisomer not certain

Row | Compound | LC retention time [min]
1 | COc1cccc(C2(O)CCCCC2CN(C)C)c1 (stereo unspecified) | 11.1
2 | CC1(C)SC2C(NC(=O)C(N)c3ccccc3)C(=O)N2C1C(=O)O (stereo unspecified) | 10.4
3 | CCn1cc(C(=O)O)c(=O)c2cc3c(cc21)OCO3 | 15.4
4 | CC12CCC(O)CC1CCC1C2CC(O)C2(C)C(C3=CC(=O)OC3)CCC12O (stereo unspecified) | 13.4
5 | CON=C(C(=O)NC1C(=O)N2C(C(=O)O)=C(COC(C)=O)CSC12)c1csc(N)n1 (stereo unspecified) | 12.9
6 | CC(C)NCC(O)COc1ccc(CC(=O)O)cc1 (stereo unspecified) | 9.4
7 | COCCc1ccc(OCC(O)CNC(C)C)cc1 (stereo unspecified) | 12.1
8 | Cc1onc(-c2ccccc2)c1C(=O)NC1C(=O)N2C1SC(C)(C)C2C(=O)O (stereo unspecified) | 19.2
9 | CN(C)CCOC(c1ccccc1)c1ccccc1 | 15.1
10 | COc1ccc2c3c1OC1C(=O)CCC4(O)C(C2)N(C)CCC314 (stereo unspecified) | 9.4
11 | Cn1c(=O)[nH]c2ncn(C)c2c1=O | 6.3
12 | CC(C(=O)O)c1cccc(C(=O)c2ccccc2)c1 (stereo unspecified) | 19
13 | CCCC(C)(COC(N)=O)COC(N)=O | 14.7
14 | CCC1OC(=O)CC(O)C(C)C(OC2OC(C)C(OC3CC(C)(O)C(O)C(C)O3)C(N(C)C)C2O)C(CC=O)CC(C)C(=O)C=CC(C)=CC1COC1OC(C)C(O)C(OC)C1OC (stereo unspecified) | 15
15 | NCC1(CC(=O)O)CCCCC1 | 6.5
16 | CC(C)(C)NCC(O)c1ccc(O)c(CO)c1 (stereo unspecified) | 4
17 | CCC1OC(=O)C(C)C(OC2CC(C)(OC)C(O)C(C)O2)C(C)C(OC2OC(C)CC(N(C)C)C2O)C(C)(O)CC(C)C(=O)C(C)C(O)C1(C)O (stereo unspecified) | 14.6
18 | CCC(=O)C(CC(C)N(C)C)(c1ccccc1)c1ccccc1 (stereo unspecified) | 16.6
19 | Cc1ccc(C)c(OCCCC(C)(C)C(=O)O)c1 | 25
20 | CC1OC(OC2C(O)CC(OC3C(O)CC(OC4CCC5(C)C(CCC6C5CC(O)C5(C)C(C7=CC(=O)OC7)CCC65O)C4)OC3C)OC2C)CC(O)C1O (stereo unspecified) | 15.2
21 | COc1ccc2c3c1OC1C(=O)CCC4C(C2)N(C)CCC314 (stereo unspecified) | 10.1
22 | CCCC1CC(C(=O)NC(C(C)O)C2OC(SC)C(O)C(O)C2O)N(C)C1 (stereo unspecified) | 8.7
23 | CNC(=C[N+](=O)[O-])NCCSCc1ccc(CN(C)C)o1 | 4.6

Row | Compound | LC retention time [min]
24 | O=C1NC(=O)C(c2ccccc2)(c2ccccc2)N1 | 17.1
25 | CC1(C)SC2C(NC(=O)COc3ccccc3)C(=O)N2C1C(=O)O (stereo unspecified) | 17.9
26 | NC(=O)N1c2ccccc2CC(O)c2ccccc21 (stereo unspecified) | 13.9
27 | COc1cc(Cc2cnc(N)nc2N)cc(OC)c1OC | 10.4
28 | CN1CCC23CCCCC2C1Cc1ccc(O)cc13 (stereo unspecified) | 12.1
29 | COc1ccc(C2Sc3ccccc3N(CCN(C)C)C(=O)C2OC(C)=O)cc1 (stereo unspecified) | 15.2
30 | CC1=CC(O)CC(=O)Cc2nc(co2)C(=O)N2CCC=C2C(=O)OC(C(C)C)C(C)C=CC(=O)NCC=C1.CCC1NC(=O)C(NC(=O)c2ncccc2O)C(C)OC(=O)C(c2ccccc2)NC(=O)C2CC(=O)CCN2C(=O)C(Cc2ccccc2)N(C)C(=O)C2CCCN2C1=O (stereo unspecified) | 18.4
31 | CC(C)Cc1ccc(C(C)C(=O)O)cc1 (stereo unspecified) | 23.6
32 | COc1ccc2c3c1OC1C(O)C=CC4C(C2)N(C)CCC341 (stereo unspecified) | 7
33 | COc1ccc(C(CN(C)C)C2(O)CCCCC2)cc1 (stereo unspecified) | 13.5
34 | COc1ccc2c(c1)C13CCCCC1C(C2)N(C)CC3 (stereo unspecified) | 14.6
35 | CN(C)CC(c1ccc(O)cc1)C1(O)CCCCC1 (stereo unspecified) | 11.3
36 | CC1(C)SC2C(NC(=O)Cc3ccccc3)C(=O)N2C1C(=O)O (stereo unspecified) | 16.9
37 | CN=C(NC#N)NCCSCc1nc[nH]c1C | 4.3
38 | CCC1OC(=O)C(C)C(OC2CC(C)(OC)C(O)C(C)O2)C(C)C(OC2OC(C)CC(N(C)C)C2O)C(C)(OC)CC(C)C(=O)C(C)C(O)C1(C)O (stereo unspecified) | 16
39 | O=C(c1ccccc1)c1ccc2n1CCC2C(=O)O (stereo unspecified) | 19.7
40 | Cn1c(=O)c2c(ncn2C)n(C)c1=O | 9.8
41 | COC(=O)c1c(C)nc(C)c(C(=O)OC)c1-c1ccccc1[N+](=O)[O-] | 20.5
42 | CN1C(=O)CCC1c1cccnc1 (stereo unspecified) | 3.2
43 | CCC1OC(=O)C(C)C(OC2CC(C)(OC)C(O)C(C)O2)C(C)C(OC2OC(C)CC(N(C)C)C2O)C(C)(O)CC(C)C(=NOCOCCOC)C(C)C(O)C1(C)O (stereo unspecified) | 16.2
44 | CCC1OC(=O)C(C)C(OC2CC(C)(OC)C(O)C(C)O2)C(C)C(OC2OC(C)CC(N(C)C)C2O)C(C)(O)CC(C)CN(C)C(C)C(O)C1(C)O (stereo unspecified) | 12.2
45 | COc1ccccc1OCC(O)CO (stereo unspecified) | 12.7
46 | CCC(C)(C)C(=O)OC1CC(C)C=C2C=CC(C)C(CCC3CC(O)CC(=O)O3)C21 (stereo unspecified) | 26.9

Second part, the compound after the results:

Row | LC retention time [min] | Compound
47 | 17.1 | NC(=O)N1c2ccccc2CCc2ccccc21
48 | 12.4 | Cc1cc(C)nc(NS(=O)(=O)c2ccc(N)cc2)n1
49 | 8.8 | c1ccc2[nH]c(-c3cscn3)nc2c1
50 | 17.2 | NC(=O)N1c2ccccc2C=Cc2ccccc21
51 | 10.6 | Nc1ccc(S(=O)(=O)Nc2nccs2)cc1
52 | 15.8 | NC(=O)N1c2ccccc2CC(=O)c2ccccc21
53 | 16.5 | COc1cc(NS(=O)(=O)c2ccc(N)cc2)nc(OC)n1
54 | 12.7 | CCC1(c2ccccc2)C(=O)NCNC1=O
55 | 9.9 | Nc1ccc(S(=O)(=O)Nc2ncccn2)cc1
56 | 12.7 | Cc1nnc(NS(=O)(=O)c2ccc(N)cc2)s1
57 | 15.3 | Cc1cc(NS(=O)(=O)c2ccc(N)cc2)no1
58 | 24.6 | Cc1cccc(Nc2ccccc2C(=O)O)c1C
59 | 6.5 | CC(=O)Nc1ccc(O)cc1
60 | 11.5 | Cc1ccnc(NS(=O)(=O)c2ccc(N)cc2)n1
61 | 20.9 | COc1ccc2cc(C(C)C(=O)O)ccc2c1 (stereo unspecified)
62 | 14.4 | CC(C)NCC(O)COc1cccc2ccccc12 (stereo unspecified)
63 | 4.6 | Nc1ccc(S(N)(=O)=O)cc1
64 | 4.2 | CC(C)NCC(O)COc1ccc(CC(N)=O)cc1 (stereo unspecified)
65 | 21.4 | CC(=O)CC(c1ccccc1)c1c(O)c2ccccc2oc1=O (stereo unspecified)
66 | 12.9 | NC(=O)N1c2ccccc2C(O)C(O)c2ccccc21 (stereo unspecified)
